Experimental data as given in US20070128217A1 (priority 2003, published 2007).

Assays:
[1] = tested on: control sera (pooled serum of ten healthy LUMC hospital workers; commercial negative donor pooled serum from the Dutch bloodbank); assay type: binding, human; set-up: Binding of Control serum LUMC to linear peptides / Binding of Control serum Blood-bank to linear peptides / Binding of Control serum LUMC to looped peptides / Binding of Control Serum Blood-Bank to Looped peptides / Binding of Control serum LUMC to linear peptides of the protein M of SARS-CoV Urbani / Binding of Control serum Blood-bank to linear peptides of the protein M of SARS-CoV Urbani / Binding of Control serum LUMC to looped peptides of the protein M of SARS-CoV Urbani / Binding of Control Serum Blood-Bank to Looped peptides of the protein M of SARS-CoV Urbani: unit not given here
[2] = tested on: antibodies in sera from SARS patients (sera 1a, 1b, 2, 6, 37, 62, London, SARS-yellow, SARS-green); assay type: binding, human; set-up: Binding of serum 6 to linear peptides of protein X1 of SARS-CoV Urbani / Binding of serum 37 to linear peptides of protein X1 of SARS-CoV Urbani / Binding of serum 6 to looped/cyclic peptide (PEPSCAN-ELISA) / Binding of serum 37 to looped/cyclic peptide (PEPSCAN-ELISA) / Binding of serum 37 to looped/cyclic peptides of protein X1 of SARS-CoV Urbani / Binding of serum 6 to linear peptides of protein X2 / Binding of serum 37 to linear peptides of protein X2 / Binding of serum 37 to looped/cyclic peptides of protein X2 of SARS-CoV Urbani / Binding of serum 6 to linear peptides of protein M of SARS-CoV Urbani / Binding of serum 37 to linear peptides of protein M of SARS-CoV Urbani / Binding of serum 6 to looped/cyclic peptides of protein M of SARS-CoV Urbani / Binding of serum 37 to looped/cyclic peptides of protein M of SARS-CoV Urbani / Binding of serum 6 to linear peptides of protein X3 of SARS-CoV Urbani / Binding of serum 37 to linear peptides of protein X3 of SARS-CoV Urbani / Binding of serum 37 to looped/cyclic peptides of protein X3 of SARS-CoV Urbani / Binding of serum 6 to linear peptides of protein X4 of SARS-CoV Urbani / Binding of serum 37 to linear peptides of protein X4 of SARS-CoV Urbani / Binding of serum 37 to looped/cyclic peptides of protein X4 of SARS-CoV Urbani / Binding of serum 6 to linear peptides of protein X5 of SARS-CoV Urbani / Binding of serum 37 to linear peptides of protein X5 of SARS-CoV Urbani / Binding of serum 37 to looped/cyclic peptides of protein X5 of SARS-CoV Urbani / Binding of serum 6 to linear peptides of protein N of SARS-CoV Urbani / Binding of serum 37 to linear peptides of protein N of SARS-CoV Urbani / Binding of serum 6 to linear peptide (PEPSCAN-ELISA) / Binding of serum 1a to looped/cyclic peptides of protein N of SARS-CoV Urbani / Binding of serum 1b to looped/cyclic peptides of protein N of SARS-CoV Urbani / Binding of serum 2 to looped/cyclic peptides of protein N of SARS-CoV Urbani / Binding of serum 6 to looped/cyclic peptides of protein N of SARS-CoV Urbani / Binding of serum 37 to looped/cyclic peptides of protein N of SARS-CoV Urbani / Binding of serum 62 to looped/cyclic peptides of protein N of SARS-CoV Urbani / Binding of serum London to looped/cyclic peptides of protein N of SARS-CoV Urbani / Binding of serum SARS-green to looped/cyclic peptides of protein N of SARS-CoV Urbani: unit not given here

FICNLLLLFVTTYSH
Binding of Control Serum Blood-Bank to Looped peptides [1]: 0.5 | Binding of Control serum Blood-bank to linear peptides [1]: 0.6 | Binding of Control serum LUMC to linear peptides [1]: 0.5 | Binding of Control serum LUMC to looped peptides [1]: 0.5

GHPLGRCDIKDLPKE
Binding of Control Serum Blood-Bank to Looped peptides of the protein M of SARS-CoV Urbani [1]: 0.7 | Binding of Control serum Blood-bank to linear peptides of the protein M of SARS-CoV Urbani [1]: 0.6 | Binding of Control serum LUMC to linear peptides of the protein M of SARS-CoV Urbani [1]: 0.6 | Binding of Control serum LUMC to looped peptides of the protein M of SARS-CoV Urbani [1]: 0.7

IAMACIVGLMWLSYF
Binding of serum 1a to linear peptides of protein M of SARS-CoV Urbani [2]: 0.6 | Binding of serum 1a to looped/cyclic peptides of protein M of SARS-CoV Urbani [2]: 0.6 | Binding of serum 1b to linear peptides of protein M of SARS-CoV Urbani [2]: 0.5 | Binding of serum 1b to looped/cyclic peptides of protein M of SARS-CoV Urbani [2]: 0.4 | Binding of serum 2 to linear peptides of protein M of SARS-CoV Urbani [2]: 0.4 | Binding of serum 2 to looped/cyclic peptides of protein M of SARS-CoV Urbani [2]: 0.4 | Binding of serum 6 to linear peptides of protein M of SARS-CoV Urbani [2]: 0.3 | Binding of serum 6 to looped/cyclic peptides of protein M of SARS-CoV Urbani [2]: 0.7 | Binding of serum 37 to linear peptides of protein M of SARS-CoV Urbani [2]: 0.3 | Binding of serum 37 to looped/cyclic peptides of protein M of SARS-CoV Urbani [2]: 0.4 | Binding of serum 62 to linear peptides of protein M of SARS-CoV Urbani [2]: 0.3 | Binding of serum 62 to looped/cyclic peptides of protein M of SARS-CoV Urbani [2]: 0.4 | Binding of serum London to linear peptides of protein M of SARS-CoV Urbani [2]: 0.3 | Binding of serum London to looped/cyclic peptides of protein M of SARS-CoV Urbani [2]: 0.2 | Binding of serum SARS-green to linear peptides of protein M of SARS-CoV Urbani [2]: 0.3 | Binding of serum SARS-green to looped/cyclic peptides of protein M of SARS-CoV Urbani [2]: 0.3 | Binding of serum SARS-yellow to linear peptides of protein M of SARS-CoV Urbani [2]: 0.2 | Binding of serum SARS-yellow to looped/cyclic peptides of protein M of SARS-CoV Urbani [2]: 0.6 | Binding of Control Serum Blood-Bank to Looped peptides of the protein M of SARS-CoV Urbani [1]: 0.6 | Binding of Control serum Blood-bank to linear peptides of the protein M of SARS-CoV Urbani [1]: 0.5 | Binding of Control serum LUMC to linear peptides of the protein M of SARS-CoV Urbani [1]: 0.6 | Binding of Control serum LUMC to looped peptides of the protein M of SARS-CoV Urbani [1]: 0.7

IGVAFLAVPQSATKI
Binding of Control Serum Blood-Bank to Looped peptides [1]: 0.5 | Binding of Control serum Blood-bank to linear peptides [1]: 0.8 | Binding of Control serum LUMC to linear peptides [1]: 0.8 | Binding of Control serum LUMC to looped peptides [1]: 0.5

IMRCWLCWKCKSKNP
Binding of serum 1a to looped/cyclic peptide (PEPSCAN-ELISA) [2]: 0.3 | Binding of serum 1b to looped/cyclic peptide (PEPSCAN-ELISA) [2]: 0.1 | Binding of serum 2 to looped/cyclic peptide (PEPSCAN-ELISA) [2]: 0.1 | Binding of serum 6 to looped/cyclic peptide (PEPSCAN-ELISA) [2]: 0.2 | Binding of serum 37 to looped/cyclic peptide (PEPSCAN-ELISA) [2]: 0.3 | Binding of serum 62 to looped/cyclic peptide (PEPSCAN-ELISA) [2]: 0.3 | Binding of serum London to looped/cyclic peptide (PEPSCAN-ELISA) [2]: 0.1 | Binding of serum SARS-green to looped/cyclic peptide (PEPSCAN-ELISA) [2]: 0.1 | Binding of serum SARS-yellow to looped/cyclic peptide (PEPSCAN-ELISA) [2]: 0.0 | Recognition of the peptide by sera of SARS-CoV infected individuals, and form (linear, looped/cyclic) in which it is recognized [2]: recognized in linear form | Binding of Control Serum Blood-Bank to Looped peptides [1]: 0.4 | Binding of Control serum Blood-bank to linear peptides [1]: 0.5 | Binding of Control serum LUMC to linear peptides [1]: 0.5 | Binding of Control serum LUMC to looped peptides [1]: 0.2

MVQTGTPNVTINCQD
Binding of Control Serum Blood-Bank to Looped peptides [1]: 0.3 | Binding of Control serum Blood-bank to linear peptides [1]: 0.8 | Binding of Control serum LUMC to linear peptides [1]: 0.6 | Binding of Control serum LUMC to looped peptides [1]: 0.3

RCWLGWKCKSKNPLL
Binding of Control Serum Blood-Bank to Looped peptides [1]: 0.7 | Binding of Control serum Blood-bank to linear peptides [1]: 1.2 | Binding of Control serum LUMC to linear peptides [1]: 1.0 | Binding of Control serum LUMC to looped peptides [1]: 0.7

SLTSLLKTHRMCKYT
Binding of serum 1a to linear peptides of protein X2 [2]: 0.8 | Binding of serum 1a to looped/cyclic peptides of protein X2 of SARS-CoV Urbani [2]: 0.3 | Binding of serum 1b to linear peptides of protein X2 [2]: 0.4 | Binding of serum 1b to looped/cyclic peptides of protein X2 of SARS-CoV Urbani [2]: 0.3 | Binding of serum 2 to linear peptides of protein X2 [2]: 0.4 | Binding of serum 2 to looped/cyclic peptides of protein X2 of SARS-CoV Urbani [2]: 0.1 | Binding of serum 6 to linear peptides of protein X2 [2]: 0.4 | Binding of serum 6 to looped/cyclic peptides of protein X2 of SARS-CoV Urbani [2]: 0.2 | Binding of serum 37 to linear peptides of protein X2 [2]: 0.3 | Binding of serum 37 to looped/cyclic peptides of protein X2 of SARS-CoV Urbani [2]: 0.2 | Binding of serum 62 to linear peptides of protein X2 [2]: 0.7 | Binding of serum 62 to looped/cyclic peptides of protein X2 of SARS-CoV Urbani [2]: 0.4 | Binding of serum London to linear peptides of protein X2 [2]: 0.4 | Binding of serum London to looped/cyclic peptides of protein X2 of SARS-CoV Urbani [2]: 0.2 | Binding of serum SARS-green to linear peptides of protein X2 [2]: 0.5 | Binding of serum SARS-green to looped/cyclic peptides of protein X2 of SARS-CoV Urbani [2]: 0.2 | Binding of serum SARS-yellow to linear peptides of protein X2 [2]: 0.3 | Binding of serum SARS-yellow to looped/cyclic peptides of protein X2 of SARS-CoV Urbani [2]: 0.3

TGTLIVNSVLLPLAF
Binding of serum 1a to linear peptides of protein E of SARS-CoV Urbani [2]: 0.7 | Binding of serum 1b to linear peptides of protein E of SARS-CoV Urbani [2]: 0.5 | Binding of serum 2 to linear peptides of protein E of SARS-CoV Urbani [2]: 0.3 | Binding of serum 6 to linear peptides of protein E of SARS-CoV Urbani [2]: 0.6 | Binding of serum 37 to linear peptides of protein E of SARS-CoV Urbani [2]: 0.7 | Binding of serum 62 to linear peptides of protein E of SARS-CoV Urbani [2]: 0.6 | Binding of serum London to linear peptides of protein E of SARS-CoV Urbani [2]: 0.4 | Binding of serum SARS-green to linear peptides of protein E of SARS-CoV Urbani [2]: 0.4 | Binding of serum SARS-yellow to linear peptides of protein E of SARS-CoV Urbani [2]: 0.2

TTVYHTTVSQIQLSL
Binding of Control Serum Blood-Bank to Looped peptides [1]: 0.6 | Binding of Control serum Blood-bank to linear peptides [1]: 0.6 | Binding of Control serum LUMC to linear peptides [1]: 0.7 | Binding of Control serum LUMC to looped peptides [1]: 0.5
